We go through one compound from ChEMBL document CHEMBL5260810, “Inhibition of bromodomain-containing protein 9 for the prevention of epigenetically-defined drug resistance” (Bioorg Med Chem Lett, 2017).

Sequence of Bromodomain adjacent to zinc finger domain protein 2A (Q9UIF9 whole entry, the tested form may be a part): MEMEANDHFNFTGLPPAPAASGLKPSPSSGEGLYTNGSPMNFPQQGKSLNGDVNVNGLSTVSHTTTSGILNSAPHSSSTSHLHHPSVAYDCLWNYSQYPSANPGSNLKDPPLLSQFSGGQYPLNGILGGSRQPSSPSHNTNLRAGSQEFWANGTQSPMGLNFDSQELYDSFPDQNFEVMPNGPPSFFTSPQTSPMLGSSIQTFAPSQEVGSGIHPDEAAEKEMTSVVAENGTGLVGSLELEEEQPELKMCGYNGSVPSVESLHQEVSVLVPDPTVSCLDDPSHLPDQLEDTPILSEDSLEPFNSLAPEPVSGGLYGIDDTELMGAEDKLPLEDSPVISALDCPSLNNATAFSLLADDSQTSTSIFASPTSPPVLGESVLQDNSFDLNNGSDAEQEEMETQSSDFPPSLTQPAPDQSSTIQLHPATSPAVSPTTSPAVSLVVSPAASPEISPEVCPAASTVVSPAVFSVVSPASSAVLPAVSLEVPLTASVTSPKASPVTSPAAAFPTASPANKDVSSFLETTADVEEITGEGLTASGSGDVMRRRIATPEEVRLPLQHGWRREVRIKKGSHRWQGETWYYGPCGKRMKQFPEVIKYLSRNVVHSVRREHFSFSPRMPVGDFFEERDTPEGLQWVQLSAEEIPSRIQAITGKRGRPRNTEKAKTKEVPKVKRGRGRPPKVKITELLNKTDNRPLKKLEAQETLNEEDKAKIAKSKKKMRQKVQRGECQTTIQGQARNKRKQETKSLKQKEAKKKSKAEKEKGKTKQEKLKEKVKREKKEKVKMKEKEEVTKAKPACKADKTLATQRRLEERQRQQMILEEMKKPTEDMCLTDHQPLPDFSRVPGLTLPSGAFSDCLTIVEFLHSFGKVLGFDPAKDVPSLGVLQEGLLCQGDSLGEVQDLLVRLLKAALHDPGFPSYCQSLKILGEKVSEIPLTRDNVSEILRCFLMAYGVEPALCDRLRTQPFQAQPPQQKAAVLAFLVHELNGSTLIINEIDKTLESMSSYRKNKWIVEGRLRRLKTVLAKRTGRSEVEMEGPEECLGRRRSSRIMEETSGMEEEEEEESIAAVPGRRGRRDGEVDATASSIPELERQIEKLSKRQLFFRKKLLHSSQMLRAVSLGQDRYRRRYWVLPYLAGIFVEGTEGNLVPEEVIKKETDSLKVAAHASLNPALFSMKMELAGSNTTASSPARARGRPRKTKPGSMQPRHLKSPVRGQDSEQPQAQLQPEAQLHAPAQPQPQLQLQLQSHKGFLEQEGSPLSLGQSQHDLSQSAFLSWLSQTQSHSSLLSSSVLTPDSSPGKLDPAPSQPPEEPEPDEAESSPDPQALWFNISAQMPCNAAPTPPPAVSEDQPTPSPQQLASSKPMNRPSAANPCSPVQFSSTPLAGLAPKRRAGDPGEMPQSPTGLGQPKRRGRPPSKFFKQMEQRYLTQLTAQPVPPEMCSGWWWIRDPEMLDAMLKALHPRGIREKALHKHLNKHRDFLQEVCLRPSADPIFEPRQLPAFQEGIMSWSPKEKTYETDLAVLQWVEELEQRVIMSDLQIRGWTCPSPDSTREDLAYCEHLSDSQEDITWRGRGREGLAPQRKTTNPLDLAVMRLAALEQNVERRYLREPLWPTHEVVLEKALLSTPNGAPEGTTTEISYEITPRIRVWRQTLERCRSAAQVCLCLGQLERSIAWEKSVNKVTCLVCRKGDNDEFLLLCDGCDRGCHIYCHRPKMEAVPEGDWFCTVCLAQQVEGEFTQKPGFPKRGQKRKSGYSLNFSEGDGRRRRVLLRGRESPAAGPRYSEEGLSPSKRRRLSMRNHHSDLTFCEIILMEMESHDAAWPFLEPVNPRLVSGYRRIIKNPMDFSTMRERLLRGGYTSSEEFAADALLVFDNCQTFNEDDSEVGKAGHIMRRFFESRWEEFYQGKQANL

The target of the first test is SWI/SNF-related matrix-associated actin-dependent regulator of chromatin subfamily A member 2 (Homo sapiens, UniProt P51531). Nature of the test: Binding affinity to human partial length SMARCA2 (S1377 to Q1486 residues) expressed in bacterial expression system by BROMOscan assay.
Sequence of SWI/SNF-related matrix-associated actin-dependent regulator of chromatin subfamily A member 2 (P51531 whole entry, the tested form may be a part): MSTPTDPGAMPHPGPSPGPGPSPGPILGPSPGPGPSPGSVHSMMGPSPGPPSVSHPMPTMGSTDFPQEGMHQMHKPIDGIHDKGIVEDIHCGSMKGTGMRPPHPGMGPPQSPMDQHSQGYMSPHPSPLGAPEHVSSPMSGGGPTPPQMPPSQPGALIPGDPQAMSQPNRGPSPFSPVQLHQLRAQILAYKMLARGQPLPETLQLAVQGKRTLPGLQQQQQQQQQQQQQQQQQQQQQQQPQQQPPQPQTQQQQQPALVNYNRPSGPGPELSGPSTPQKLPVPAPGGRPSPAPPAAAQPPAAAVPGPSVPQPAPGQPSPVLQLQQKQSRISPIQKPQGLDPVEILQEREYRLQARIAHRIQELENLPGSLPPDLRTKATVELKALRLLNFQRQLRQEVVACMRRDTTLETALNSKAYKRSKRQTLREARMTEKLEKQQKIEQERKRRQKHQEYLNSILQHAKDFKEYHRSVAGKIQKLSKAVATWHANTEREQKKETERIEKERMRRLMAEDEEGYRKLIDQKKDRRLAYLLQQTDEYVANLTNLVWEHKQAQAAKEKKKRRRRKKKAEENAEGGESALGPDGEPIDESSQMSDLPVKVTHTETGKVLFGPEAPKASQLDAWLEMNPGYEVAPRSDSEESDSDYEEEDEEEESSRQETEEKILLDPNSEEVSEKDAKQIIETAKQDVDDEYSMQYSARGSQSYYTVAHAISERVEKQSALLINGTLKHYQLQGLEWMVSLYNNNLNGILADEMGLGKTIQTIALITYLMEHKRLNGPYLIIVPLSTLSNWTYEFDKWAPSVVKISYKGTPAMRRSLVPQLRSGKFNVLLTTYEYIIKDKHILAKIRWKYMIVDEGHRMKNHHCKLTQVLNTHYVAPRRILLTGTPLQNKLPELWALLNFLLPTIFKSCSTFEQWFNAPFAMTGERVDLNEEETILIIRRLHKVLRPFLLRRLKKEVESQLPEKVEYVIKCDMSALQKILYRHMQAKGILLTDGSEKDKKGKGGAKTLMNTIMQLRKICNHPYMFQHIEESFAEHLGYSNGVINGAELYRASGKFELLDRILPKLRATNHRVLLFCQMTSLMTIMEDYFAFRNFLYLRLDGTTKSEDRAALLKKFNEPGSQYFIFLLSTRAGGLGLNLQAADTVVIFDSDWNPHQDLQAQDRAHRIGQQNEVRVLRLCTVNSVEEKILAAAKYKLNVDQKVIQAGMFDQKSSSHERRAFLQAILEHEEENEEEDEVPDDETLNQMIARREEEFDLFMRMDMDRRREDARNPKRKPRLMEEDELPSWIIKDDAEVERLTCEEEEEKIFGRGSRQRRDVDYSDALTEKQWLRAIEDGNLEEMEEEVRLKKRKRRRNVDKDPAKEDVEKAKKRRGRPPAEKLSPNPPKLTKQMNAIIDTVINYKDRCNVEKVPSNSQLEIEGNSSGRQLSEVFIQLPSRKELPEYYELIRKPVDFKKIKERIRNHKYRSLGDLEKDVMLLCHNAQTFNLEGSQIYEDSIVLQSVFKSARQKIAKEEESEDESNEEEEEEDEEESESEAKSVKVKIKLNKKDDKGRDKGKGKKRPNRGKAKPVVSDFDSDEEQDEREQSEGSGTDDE
Conditions: not given
The Kd is a measure of binding affinity in units of concentration. The compound `C/C=C/Cn1cc(-c2cc(OC)c(C(=O)N3CCOCC3)cc2OC)c2cc(C)[nH]c2c1=O` displayed a Kd above 10000 nM.

Another test deals with Bromodomain-containing protein 2 (Homo sapiens, UniProt P25440). Briefly: Binding affinity to human partial length BRD2 bromodomain 1/2 isoform 1 (K71 to D455 residues) by BROMOscan assay.
Sequence of Bromodomain-containing protein 2 (P25440 whole entry, the tested form may be a part, canonical isoform): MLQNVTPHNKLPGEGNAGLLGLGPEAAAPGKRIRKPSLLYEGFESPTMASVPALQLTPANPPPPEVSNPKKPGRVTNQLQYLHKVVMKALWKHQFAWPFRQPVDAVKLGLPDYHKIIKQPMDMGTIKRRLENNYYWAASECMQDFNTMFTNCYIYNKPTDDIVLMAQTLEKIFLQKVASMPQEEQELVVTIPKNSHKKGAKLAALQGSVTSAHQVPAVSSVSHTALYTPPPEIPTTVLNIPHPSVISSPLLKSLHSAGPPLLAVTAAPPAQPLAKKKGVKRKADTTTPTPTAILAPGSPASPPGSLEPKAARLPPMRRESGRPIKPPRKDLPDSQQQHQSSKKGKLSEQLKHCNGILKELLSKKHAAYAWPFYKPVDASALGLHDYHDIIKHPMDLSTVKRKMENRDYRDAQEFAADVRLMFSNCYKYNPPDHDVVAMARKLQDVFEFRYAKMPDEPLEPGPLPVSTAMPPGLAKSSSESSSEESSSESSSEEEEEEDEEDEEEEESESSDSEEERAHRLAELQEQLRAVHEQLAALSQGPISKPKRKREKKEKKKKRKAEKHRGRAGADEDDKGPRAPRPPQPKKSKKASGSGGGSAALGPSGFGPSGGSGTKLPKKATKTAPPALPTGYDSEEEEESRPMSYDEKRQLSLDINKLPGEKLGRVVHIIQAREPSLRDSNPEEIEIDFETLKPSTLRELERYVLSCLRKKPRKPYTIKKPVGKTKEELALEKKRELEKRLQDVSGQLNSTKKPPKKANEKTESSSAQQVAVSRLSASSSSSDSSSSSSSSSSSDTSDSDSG
Conditions: not given
In turn, `C/C=C/Cn1cc(-c2cc(OC)c(C(=O)N3CCOCC3)cc2OC)c2cc(C)[nH]c2c1=O` gave a Kd above 10000 nM.

System in another test: not listed separately
Nature of the test: Cytotoxicity against human KPL-1 cells measured after 8 days. It counts as functional, cell-based. The following applies: KPL-1, 192 h.
In general, IC50 refers to the concentration at which inhibition is half-maximal. In turn, `C/C=C/Cn1cc(-c2cc(OC)c(C(=O)N3CCOCC3)cc2OC)c2cc(C)[nH]c2c1=O` had an IC50 of 2000 nM.

In the next test the test system is AU565. Nature of the test: Cytotoxicity against human AU565 cells measured after 8 days. Type of test: functional, cell-based. The following applies: AU565, 192 h.
`C/C=C/Cn1cc(-c2cc(OC)c(C(=O)N3CCOCC3)cc2OC)c2cc(C)[nH]c2c1=O`: half-maximal inhibition (IC50) required 2000 nM.

The next test deals with Sodium-dependent noradrenaline transporter (Homo sapiens) (UniProt P23975). Briefly: Displacement of [3H]nisoxetine from recombinant human norepinephrine transporter at 10 uM after 120 mins by scintillation counting analysis relative to control.
Sequence of Sodium-dependent noradrenaline transporter (Homo sapiens) (P23975 whole entry): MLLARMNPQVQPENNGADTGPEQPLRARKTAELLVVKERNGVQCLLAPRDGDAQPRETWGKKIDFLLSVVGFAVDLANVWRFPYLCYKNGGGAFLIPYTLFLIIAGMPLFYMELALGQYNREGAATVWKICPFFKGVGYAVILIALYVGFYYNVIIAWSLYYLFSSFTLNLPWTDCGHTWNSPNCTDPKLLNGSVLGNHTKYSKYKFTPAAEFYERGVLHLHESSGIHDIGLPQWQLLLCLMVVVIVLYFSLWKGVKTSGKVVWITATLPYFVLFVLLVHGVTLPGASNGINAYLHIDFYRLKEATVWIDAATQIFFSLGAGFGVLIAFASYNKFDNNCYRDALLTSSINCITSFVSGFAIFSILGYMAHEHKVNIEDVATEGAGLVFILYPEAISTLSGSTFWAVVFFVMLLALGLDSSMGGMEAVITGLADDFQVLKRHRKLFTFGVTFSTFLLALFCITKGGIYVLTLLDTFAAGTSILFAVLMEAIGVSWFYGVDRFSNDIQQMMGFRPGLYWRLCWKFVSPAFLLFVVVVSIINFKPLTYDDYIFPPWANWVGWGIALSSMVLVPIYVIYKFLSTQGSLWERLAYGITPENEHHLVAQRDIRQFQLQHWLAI
Conditions: not given
For orientation: Loss of bound radioactivity is the signal in a displacement assay; it reports binding, not function.
Consider `C/C=C/Cn1cc(-c2cc(OC)c(C(=O)N3CCOCC3)cc2OC)c2cc(C)[nH]c2c1=O`, for which the Activity was found to be 0%.

System in the next test: not listed separately
Nature of the test: Cytotoxicity against human NCI-H2731 cells measured after 8 days. It counts as functional, cell-based. The following applies: NCI-H2731, 192 h.
Take `C/C=C/Cn1cc(-c2cc(OC)c(C(=O)N3CCOCC3)cc2OC)c2cc(C)[nH]c2c1=O`: the IC50 was found to be 2000 nM.

For the next test, the system named is SUD4. Nature of the test: Cytotoxicity against human SU-DHL-4 cells measured after 8 days. It counts as functional, cell-based. The following applies: SU-DHL-4, 192 h.
In turn, `C/C=C/Cn1cc(-c2cc(OC)c(C(=O)N3CCOCC3)cc2OC)c2cc(C)[nH]c2c1=O` showed an IC50 of 2000 nM.

The species named for another test is Homo sapiens. Briefly: Binding affinity to GABA-gated chloride channel (unknown origin) at 10 uM by antagonist radioligand-based assay relative to control. The arrangement: scale not given: the % may be the effect or the level left. The conditions noted are these: time 60.0 min.
In the case of `C/C=C/Cn1cc(-c2cc(OC)c(C(=O)N3CCOCC3)cc2OC)c2cc(C)[nH]c2c1=O`, the Activity was determined as 14%.

System in another test: not listed separately
Briefly: Cytotoxicity against human MOR cells measured after 8 days. It counts as functional, cell-based. The conditions noted are these: 192 h.
The compound `C/C=C/Cn1cc(-c2cc(OC)c(C(=O)N3CCOCC3)cc2OC)c2cc(C)[nH]c2c1=O` registered an IC50 of 2000 nM.

System in another test: not listed separately
Nature of the test: Cytotoxicity against human LS174T-HM7 cells measured after 8 days. The following applies: LS174T-HM7, 192 h. Type of test: functional, cell-based.
`C/C=C/Cn1cc(-c2cc(OC)c(C(=O)N3CCOCC3)cc2OC)c2cc(C)[nH]c2c1=O` returned an IC50 of 2000 nM.

The next test concerns COLO 205. Nature of the test: Cytotoxicity against human COLO 205 cells measured after 8 days. Type of test: functional, cell-based. The following applies: COLO 205, 192 h.
With `C/C=C/Cn1cc(-c2cc(OC)c(C(=O)N3CCOCC3)cc2OC)c2cc(C)[nH]c2c1=O`, the IC50 is 2000 nM.

The next test has as its target Bromodomain-containing protein 4 (Homo sapiens, UniProt O60885). Briefly: Displacement of biotinylated small-molecule ligand from recombinant His-tagged BRD4 bromodomain 2 (unknown origin) measured after 10 mins by TR-FRET assay.
Conditions: not given
As to `C/C=C/Cn1cc(-c2cc(OC)c(C(=O)N3CCOCC3)cc2OC)c2cc(C)[nH]c2c1=O`, the IC50 was above 20000 nM.

A further test addresses Bromodomain adjacent to zinc finger domain protein 2A (Homo sapiens, UniProt Q9UIF9). Nature of the test: Binding affinity to human partial length BAZ2A (M1792 to L1905 residues) expressed in bacterial expression system by BROMOscan assay.
Conditions: not given
For `C/C=C/Cn1cc(-c2cc(OC)c(C(=O)N3CCOCC3)cc2OC)c2cc(C)[nH]c2c1=O`, the Kd is above 10000 nM.

System in a further test: not listed separately
Briefly: Cytotoxicity against human KMS-28PE cells measured after 8 days. It counts as functional, cell-based. The conditions noted are these: 192 h.
Turning to `C/C=C/Cn1cc(-c2cc(OC)c(C(=O)N3CCOCC3)cc2OC)c2cc(C)[nH]c2c1=O`, half-maximal inhibition (IC50) was put at 2000 nM.

In the next test the test system is NAMALVA. Nature of the test: Cytotoxicity against human NAMALVA cells measured after 8 days. Type of test: functional, cell-based. The following applies: 192 h.
In turn, `C/C=C/Cn1cc(-c2cc(OC)c(C(=O)N3CCOCC3)cc2OC)c2cc(C)[nH]c2c1=O` gave an IC50 of 2000 nM.

The test system of a further test is U-698-M. Nature of the test: Cytotoxicity against human U-698-M cells measured after 8 days. It counts as functional, cell-based. The conditions noted are these: 192 h.
The compound `C/C=C/Cn1cc(-c2cc(OC)c(C(=O)N3CCOCC3)cc2OC)c2cc(C)[nH]c2c1=O` had an IC50 of 2000 nM.

A further test relates to NCI-H28. Briefly: Cytotoxicity against human NCI-H28 cells measured after 8 days. Type of test: functional, cell-based. The conditions noted are these: NCI-H28, 192 h.
On to `C/C=C/Cn1cc(-c2cc(OC)c(C(=O)N3CCOCC3)cc2OC)c2cc(C)[nH]c2c1=O`, for which the IC50 was determined as 2000 nM.

A further test has as its target T1, Muscarinic acetylcholine receptor M2 (Homo sapiens) (UniProt P08172).
T1 sequence (whole entry): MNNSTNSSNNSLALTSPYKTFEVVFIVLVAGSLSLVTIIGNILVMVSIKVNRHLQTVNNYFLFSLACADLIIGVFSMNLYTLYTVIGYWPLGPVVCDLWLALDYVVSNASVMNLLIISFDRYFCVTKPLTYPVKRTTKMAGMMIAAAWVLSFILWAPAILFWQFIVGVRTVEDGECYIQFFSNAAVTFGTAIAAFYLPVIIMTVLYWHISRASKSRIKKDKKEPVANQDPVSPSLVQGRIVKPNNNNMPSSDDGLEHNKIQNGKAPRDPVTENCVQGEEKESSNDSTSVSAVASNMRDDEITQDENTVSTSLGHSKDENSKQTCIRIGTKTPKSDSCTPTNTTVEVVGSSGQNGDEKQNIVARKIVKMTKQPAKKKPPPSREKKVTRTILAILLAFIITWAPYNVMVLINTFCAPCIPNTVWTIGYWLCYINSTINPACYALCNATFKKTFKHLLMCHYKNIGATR
Briefly: Displacement of [3H]AF-DX 384 from human recombinant M2 receptor at 10 uM after 60 mins by scintillation counting analysis relative to control.
Conditions: not given
For `C/C=C/Cn1cc(-c2cc(OC)c(C(=O)N3CCOCC3)cc2OC)c2cc(C)[nH]c2c1=O`, the Activity is -8%.

For the next test, the system named is GA-10. Briefly: Cytotoxicity against human GA-10 cells measured after 8 days. It counts as functional, cell-based. The following applies: GA-10, 192 h.
`C/C=C/Cn1cc(-c2cc(OC)c(C(=O)N3CCOCC3)cc2OC)c2cc(C)[nH]c2c1=O` showed an IC50 of 2000 nM.

The next test concerns NCI-H1703. Briefly: Cytotoxicity against human NCI-H1703 cells measured after 8 days. The following applies: NCI-H1703, 192 h. It counts as functional, cell-based.
For `C/C=C/Cn1cc(-c2cc(OC)c(C(=O)N3CCOCC3)cc2OC)c2cc(C)[nH]c2c1=O`, half-maximal inhibition (IC50) required 2000 nM.
